Measured values published in ChEMBL document CHEMBL1130157 (J Med Chem, 1997).

Assays:
[1] = target: GABA-A receptor; anion channel; test: Displacement of [3H]flunitrazepam from rat brain GABA-A Benzodiazepine receptor
Translocator protein = Translocator protein (Rattus norvegicus, UniProt P16257); test: Displacement of Ro 5-4864 from peripheral (renal cell) Benzodiazepine receptor
[2] = target: GABA-A receptor; anion channel (Rattus norvegicus) (UniProt O09028+P15431+P18506+P18508+P19969+P20236+P23574+P23576+P28471+P28473+P30191+P62813+P63079+P63138+Q91ZM7+Q9ES14); test: Percentage inhibition of [3H]flunitrazepam binding to rat brain GABA-A benzodiazepine receptor at 40 uM
[3] = target: T1, GABA A receptor alpha-2/beta-2/gamma-2 (Homo sapiens, UniProt P18507+P47869+P47870); test: Potentiation of GABA-evoked Cl- currents in Xenopus oocytes expressing human alpha-2-beta-2-gamma-2 subunits; assay type: functional, cell-based, Oocyte
T1 sequence (P47870 whole entry): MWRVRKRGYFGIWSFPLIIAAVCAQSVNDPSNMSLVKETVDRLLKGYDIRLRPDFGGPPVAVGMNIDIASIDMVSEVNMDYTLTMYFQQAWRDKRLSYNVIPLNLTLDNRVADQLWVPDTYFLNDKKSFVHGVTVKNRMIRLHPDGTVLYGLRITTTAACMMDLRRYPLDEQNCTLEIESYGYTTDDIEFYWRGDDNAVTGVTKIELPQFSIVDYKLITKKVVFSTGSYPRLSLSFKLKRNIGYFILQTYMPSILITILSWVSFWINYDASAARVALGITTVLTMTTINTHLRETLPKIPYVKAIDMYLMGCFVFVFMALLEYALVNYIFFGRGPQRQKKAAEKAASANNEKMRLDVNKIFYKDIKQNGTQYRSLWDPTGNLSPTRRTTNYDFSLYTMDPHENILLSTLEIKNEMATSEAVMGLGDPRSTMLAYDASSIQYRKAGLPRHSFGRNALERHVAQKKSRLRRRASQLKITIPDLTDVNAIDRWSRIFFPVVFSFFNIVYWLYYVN
T1 sequence (P18507 whole entry): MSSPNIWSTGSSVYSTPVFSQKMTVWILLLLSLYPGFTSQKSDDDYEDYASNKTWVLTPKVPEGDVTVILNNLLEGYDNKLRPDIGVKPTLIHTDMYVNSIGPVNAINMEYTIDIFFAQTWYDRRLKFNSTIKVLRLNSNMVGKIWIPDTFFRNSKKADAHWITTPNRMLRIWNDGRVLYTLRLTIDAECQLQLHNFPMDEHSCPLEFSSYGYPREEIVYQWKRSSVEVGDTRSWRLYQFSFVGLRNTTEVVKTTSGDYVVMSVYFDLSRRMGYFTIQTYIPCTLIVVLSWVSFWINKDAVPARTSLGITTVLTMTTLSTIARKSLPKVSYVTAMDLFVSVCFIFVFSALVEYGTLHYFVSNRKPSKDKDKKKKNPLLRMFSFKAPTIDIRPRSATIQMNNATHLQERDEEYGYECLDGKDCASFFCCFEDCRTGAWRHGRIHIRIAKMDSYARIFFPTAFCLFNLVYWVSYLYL
T1 sequence (P47869 whole entry): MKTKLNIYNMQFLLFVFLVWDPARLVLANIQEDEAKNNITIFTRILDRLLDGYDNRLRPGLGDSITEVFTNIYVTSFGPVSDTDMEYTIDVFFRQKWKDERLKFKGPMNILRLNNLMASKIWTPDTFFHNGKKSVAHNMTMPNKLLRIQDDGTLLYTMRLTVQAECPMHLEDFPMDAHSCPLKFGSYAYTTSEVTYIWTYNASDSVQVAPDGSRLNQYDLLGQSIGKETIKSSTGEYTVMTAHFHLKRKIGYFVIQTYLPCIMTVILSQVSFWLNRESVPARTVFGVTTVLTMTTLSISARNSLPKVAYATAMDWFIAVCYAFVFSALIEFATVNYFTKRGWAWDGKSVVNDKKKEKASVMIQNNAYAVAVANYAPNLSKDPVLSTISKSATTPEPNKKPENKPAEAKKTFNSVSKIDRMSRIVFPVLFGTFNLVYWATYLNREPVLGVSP

[4] = target: GABA A receptor alpha-2/beta-2/gamma-2 (Homo sapiens) (UniProt P47870+P18507+P47869); test: Maximal potentiation of GABA-evoked Cl- currents in Xenopus oocytes expressing human alpha-2-beta-2-gamma-2 subunits; assay type: functional, cell-based; details: Oocyte

Sequence of Translocator protein (P16257 whole entry, looked up): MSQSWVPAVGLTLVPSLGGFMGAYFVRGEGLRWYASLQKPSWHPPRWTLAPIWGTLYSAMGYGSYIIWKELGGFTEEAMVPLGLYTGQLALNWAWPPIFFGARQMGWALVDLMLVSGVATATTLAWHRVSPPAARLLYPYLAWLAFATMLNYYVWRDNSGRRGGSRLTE

CCOC(=O)Cc1c(-c2ccccc2)nc2ccc(Cl)cn12
IC50 [1]: 1170 nM
IC50 (Translocator protein): > 100000 nM

CCCN(CCC)C(=O)Cc1c(-c2ccccc2)nc2ccc(C)cn12
IC50 [1]: 125 nM
IC50 (Translocator protein): 34.5 nM

CCCN(CCC)C(=O)Cc1c(-c2ccccc2)nc2c(C)cc(Br)cn12
inhibition [2]: 68%
IC50 (Translocator protein): 13.5 nM

CCOC(=O)Cc1c(-c2ccc(Cl)cc2)nc2ccc(Cl)cn12
IC50 [1]: 695 nM
IC50 (Translocator protein): > 100000 nM

CCCCOC(=O)Cc1c(-c2ccc(Cl)cc2)nc2ccc(Cl)cn12
IC50 [1]: 2780 nM
IC50 (Translocator protein): > 100000 nM

CCCN(CCC)C(=O)c1c(-c2ccc(Cl)cc2)nc2ccc(Cl)cn12
IC50 (Translocator protein): 426 nM

O=C(c1c(-c2ccc(Cl)cc2)nc2ccc(Cl)cn12)N1CCCC1
IC50 [1]: 2980 nM
IC50 (Translocator protein): > 100000 nM

CCCN(CCC)C(=O)Cc1c(-c2ccccc2)nc2ccc(Br)cn12
IC50 [1]: 116 nM
IC50 (Translocator protein): 14.5 nM

CCOC(=O)c1c(-c2ccc(C)cc2)nc2ccc(C)cn12
IC50 [1]: 1150 nM
IC50 (Translocator protein): > 100000 nM

CCOC(=O)Cc1c(-c2ccccc2)nc2ccc(C)cn12
IC50 [1]: 1390 nM
IC50 (Translocator protein): > 100000 nM

CCOC(=O)c1c(-c2ccccc2)nc2ccc(Cl)cn12
IC50 [1]: 2120 nM
IC50 (Translocator protein): > 100000 nM

O=C(Cc1c(-c2ccc(Cl)cc2)nc2ccc(Cl)cn12)N1CCCC1
IC50 [1]: 92 nM
EC50 [3]: 6600 nM
IC50 (Translocator protein): 287 nM
Efficacy [4]: 71%

O=C(Cc1c(-c2ccc(Cl)cc2)nc2ccc(Cl)cn12)N1CCCCC1
IC50 [1]: 240 nM
IC50 (Translocator protein): 18.7 nM

CCCN(CCC)C(=O)Cc1c(-c2ccccc2)nc2ccccn12
IC50 [1]: 464 nM
IC50 (Translocator protein): 80 nM

CCCN(CCC)C(=O)Cc1c(-c2ccccc2)nc2ccc(OC)cn12
IC50 [1]: 2830 nM
IC50 (Translocator protein): 33.6 nM

CCCN(CCC)C(=O)Cc1c(-c2ccccc2)nc2c(Br)cc(C)cn12
inhibition [2]: 78%
IC50 (Translocator protein): 19 nM

CCCN(CCC)C(=O)Cc1c(-c2ccc(Cl)cc2)nc2c(Cl)cc(Cl)cn12 [ALPDEM]
inhibition [2]: 0%
IC50 (Translocator protein): 20 nM

CCCN(CCC)C(=O)Cc1c(-c2ccc(Cl)cc2)nc2ccc(Br)cn12
IC50 [1]: 58 nM
IC50 (Translocator protein): 12 nM

CCCN(CCC)C(=O)Cc1c(-c2ccc(Cl)cc2)nc2c(Br)cc(Br)cn12
inhibition [2]: 17%
IC50 (Translocator protein): 55.3 nM

CCCN(CCC)C(=O)Cc1c(-c2ccccc2)nc2ccc(Cl)cn12
IC50 [1]: 86 nM
EC50 [3]: 130 nM
IC50 (Translocator protein): 4 nM
Efficacy [4]: 139%

CCCCOC(=O)CCc1c(-c2ccccc2)nc2ccc(Cl)cn12
IC50 [1]: 1180 nM
IC50 (Translocator protein): > 100000 nM

CCCCOC(=O)Cc1c(-c2ccccc2)nc2ccc(Cl)cn12
IC50 [1]: 2500 nM
IC50 (Translocator protein): > 100000 nM

CCN(CC)C(=O)c1c(-c2ccc(Cl)cc2)nc2ccc(Cl)cn12
IC50 [1]: 8380 nM
IC50 (Translocator protein): 2040 nM

CCCN(CCC)C(=O)CCc1c(-c2ccccc2)nc2ccc(Cl)cn12
IC50 [1]: 308 nM
IC50 (Translocator protein): 3270 nM

CCCN(CCC)C(=O)Cc1c(-c2ccccc2)nc2ccc(I)cn12
IC50 [1]: 286 nM
IC50 (Translocator protein): 23 nM

CCCN(CCC)C(=O)Cc1c(-c2ccc(Cl)cc2)nc2c(Cl)cc(C(F)(F)F)cn12
inhibition [2]: 0%
IC50 (Translocator protein): 37 nM

CCCN(CCC)C(=O)Cc1c(-c2ccccc2)nc2c(Cl)cc(Cl)cn12
inhibition [2]: 46%
IC50 (Translocator protein): 12 nM

CCOC(=O)CCc1c(-c2ccccc2)nc2ccc(Cl)cn12
IC50 [1]: 1110 nM
IC50 (Translocator protein): > 100000 nM

CCCCOC(=O)Cc1c(-c2ccccc2)nc2ccc(C)cn12
IC50 [1]: 3150 nM
IC50 (Translocator protein): > 100000 nM

Cc1ccc(-c2nc3ccc(C)cn3c2CC(=O)N(C)C)cc1 [ZOLPIDEM]
IC50 (Translocator protein): 4700 nM
Efficacy [4]: 150%

CCCN(CCC)C(=O)Cc1c(-c2ccc(Cl)cc2)nc2ccc(Cl)cn12 [ALPIDEM]
IC50 [1]: 26 nM
IC50 (Translocator protein): 7.9 nM

CCCN(CCC)C(=O)Cc1c(-c2ccccc2)nc2ccc([N+](=O)[O-])cn12
IC50 [1]: 2740 nM
IC50 (Translocator protein): 11.8 nM
